Results published in patent US12558428B2, “Heterobifunctional compounds and their use in treating disease” (Halda Therapeutics OpCo, Inc., priority 2024, dated 2026).
Read-outs that look alike come from different tables or passages of the source.

How the values were obtained:
Type in all cases: cell-based
[1] = test system: T-Rex 293 cells having increased expression of estrogen receptor alpha protein; experiment: Cellular growth inhibition assay, T-Rex 293 cells, (+) doxycycline; settings: T-REx-293, 72 h
In short: (§1)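 ERα overexpression was switched on by 3 ng/mL doxycycline in a stably transfected T-Rex 293 clone, while uninduced cells served as the comparison line. Proliferation over 72 h of compound treatment was assessed by ATP luminescence, and GI50 values came from four-parameter curves.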

[2] = test system: T-Rex 293 cells lacking increased expression of estrogen receptor alpha protein; experiment: Cellular growth inhibition assay, T-Rex 293 cells, (−) doxycycline; settings: T-REx-293, 72 h
In short: as §1

[3] = test system: MCF7 cells (ATCC #HTB-22); experiment: Cellular growth inhibition assay, MCF7 cells purchased from ATCC; settings: Homo sapiens, MCF7, 144 h
In short: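 MCF7 cells in RPMI 1640 with 10% FBS and 0.2 U/ml insulin, seeded at 1,500 cells/well (ATCC) or 225 cells/well (ECACC). Compounds added 24 h later, then 6 days at 37° C. Viability by CellTiter-Glo 2.0 luminescence. GI50 from four-parameter fit.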

[4] = T-Rex 293 cells with doxycycline-induced ERα expression, 72 hours, CellTiter-Glo 2.0, read-out: (+) Dox TRex ERa (GI50)
[5] = T-Rex 293 cells without doxycycline, 72 hours, CellTiter-Glo 2.0, read-out: (−) Dox TRex ERa (GI50)
[6] = Table 8-A, MCF7 cells purchased from ATCC, six days, CellTiter-Glo, read-out: GI50
[7] = Table 7-A, T-Rex 293 cells with doxycycline (increased ERα expression), 72 hours, CellTiter-Glo, read-out: (+) Dox GI50
[8] = Table 7-A, T-Rex 293 cells without doxycycline (lacking increased ERα expression), 72 hours, CellTiter-Glo, read-out: (−) Dox GI50

Row | Structure (SMILES) | GI50 [3, 6] [nM] | GI50 [1, 7] [nM] | GI50 [2, 8] [nM] | other results
1 | Cc1sc2c(c1C)C(c1ccc(OC3CC4(CCN(CCOc5ccc(C(=O)c6c(-c7ccc(O)cc7)sc7cc(O)ccc67)cc5)CC4)C3)cc1)=N[C@@H](Cc1ncco1)c1nnc(C)n1-2 [I-10, (S)-(6-hydroxy-2-(4-hydroxyphenyl)benzo[b]thiophen-3-yl)(4-(2-(2-(4-(2,3,9-trimethyl-6-(oxazol-2-ylmethyl)-6H-thieno[3,2-f][1,2,4]triazolo[4,3-a][1,4]diazepin-4-yl)phenoxy)-7-azaspiro[3.5]nonan-7-yl)ethoxy)phenyl)methanone] | < 50 |  |  | GI50 [1, 4]: < 50 nM; GI50 [2, 5]: < 50 nM
2 | Cn1cc(-c2cc(C(C)(C)O)ccc2Oc2ccc(N3CC(CC4CCN(c5ccc(C(=O)c6c(-c7ccc(O)cc7)sc7cc(O)ccc67)cc5)CC4)C3)cc2)c2cc[nH]c2c1=O [I-22, 4-(2-(4-(3-((1-(4-(6-hydroxy-2-(4-hydroxyphenyl)benzo[b]thiophene-3-carbonyl)phenyl)piperidin-4-yl)methyl)azetidin-1-yl)phenoxy)-5-(2-hydroxy-propan-2-yl)phenyl)-6-methyl-1,6-dihydro-7H-pyrrolo[2,3-c]pyridin-7-one] | < 50 |  |  | GI50 [1, 4]: < 50 nM; GI50 [2, 5]: 50 to 500 nM
3 | Cc1sc2c(c1C)C(c1ccc(N3CCN(c4ccc([C@@H]5c6ccc7n[nH]cc7c6C[C@@H](C)N5CC(F)(F)F)nc4)CC3)cc1)=N[C@@H](C)c1nnc(C)n1-2 [I-7, (S)-2,3,6,9-tetramethyl-4-(4-(4-(6-((6S,8R)-8-methyl-7-(2,2,2-trifluoroethyl)-6,7,8,9-tetrahydro-2H-pyrazolo[4,3-f]isoquinolin-6-yl)pyridin-3-yl)piperazin-1-yl)phenyl)-6H-thieno[3,2-f][1,2,4]triazolo[4,3-a][1,4]diazepine] |  |  |  | GI50 ([1]; read-out: (+) Dox TRex ERa (GI50)): 50 to 500 nM; GI50 ([2]; read-out: (−) Dox TRex ERa (GI50)): 50 to 500 nM; GI50 [3]: 50 to 500 nM
4 | Cc1cc(N2CCC(O)(CN3CCN(c4ccc([C@@H]5c6ccc(O)cc6CC[C@@H]5c5ccc(F)cc5F)cc4)CC3)CC2)ccc1Oc1ccc(C(C)(C)O)cc1-c1cn(C)c(=O)c2[nH]ccc12 [V-39] | 50 to 500 |  |  | GI50 ([1]; Table 7-B, T-Rex 293 cells with doxycycline (increased ERα expression), 72 hours, CellTiter-Glo, read-out: (+) Dox GI50): 50 to 500 nM; GI50 ([2]; Table 7-B, T-Rex 293 cells without doxycycline (lacking increased ERα expression), 72 hours, CellTiter-Glo, read-out: (−) Dox GI50): 50 to 500 nM
5 | Cc1sc2c(c1C)C(c1ccc(C#CC3CC4(CCN(c5ccc([C@@H]6c7ccc(O)cc7CC[C@@H]6c6ccccc6)cc5)CC4)C3)cc1)=N[C@@H](C)c1nnc(C)n1-2 [I-47] | 500 to 2500 | 50 to 500 | > 2500 | 
6 | Cc1sc2c(c1C)C(c1ccc(N3CCC(CN4CCN(c5ccc(C6=C(c7ccc(Cl)cc7Cl)CCCc7cc(C(=O)O)ccc76)cc5)CC4)CC3)cc1)=N[C@@H](C)c1nnc(C)n1-2 [IV-11] | 50 to 500 | < 50 | 500 to 2500 | 
7 | CC1=C(c2c(F)cc(F)cc2F)[C@H](c2ccc(C3CCN(CC4CCN(c5ccc(C6=N[C@@H](C)c7nnc(C)n7-c7sc(C)c(C)c76)cc5)CC4)CC3)cc2)Oc2ccc(O)cc21 [V-12] | 50 to 500 | < 50 | 50 to 500 | 
8 | COc1ccc(-c2sc3cc(OC)ccc3c2C(=O)c2ccc(OCCN3CCC(CCCCOc4ccc(C5=N[C@@H](Cc6ncco6)c6nnc(C)n6-c6sc(C)c(C)c65)cc4)CC3)cc2)cc1 [V-1] | 50 to 500 | 50 to 500 | 50 to 500 | 
9 | CC1=C(c2c(F)cc(F)cc2F)[C@@H](c2ccc(N3CCN(CC4CCN(c5ccc(C6=N[C@H](C)c7nnc(C)n7-c7sc(C)c(C)c76)cc5)CC4)CC3)cc2)Oc2ccc(O)cc21 [V-25] | > 2500 | > 2500 | > 2500 | 

The next lines start with results.

Row | GI50 [3, 6] [nM] | Structure (SMILES) | GI50 [1, 7] [nM] | GI50 [2, 8] [nM] | other results
10 | 50 to 500 | Cc1sc2c(c1C)C(c1ccc(N3CCC(O)(CN4CCN(c5ccc([C@H]6c7ccc(O)cc7CC[C@H]6c6ccc(F)cc6)cc5F)CC4)CC3)cc1)=N[C@@H](C)c1nnc(C)n1-2 [III-250, 4-((4-(2-fluoro-4-((1S,2R)-2-(4-fluorophenyl)-6-hydroxy-1,2,3,4-tetrahydronaphthalen-1-yl)phenyl)piperazin-1-yl)methyl)-1-(4-((S)-2,3,6,9-tetramethyl-6H-thieno[3,2-f][1,2,4]triazolo[4,3-a][1,4]diazepin-4-yl)phenyl)piperidin-4-ol] | 50 to 500 | 50 to 500 | 
11 | 50 to 500 | Cc1sc2c(c1C)C(c1ccc(NCC3CCN(CCOc4ccc([C@@H]5c6ccc(O)cc6CC[C@@H]5c5ccccc5)cc4)C3)cc1)=NC(Cc1ncco1)c1nnc(C)n1-2 (stereo partly drawn) [III-57] | 50 to 500 | 50 to 500 | 
12 | 50 to 500 | Cc1sc2c(c1C)C(c1ccc(N3CCC(N4CC(Oc5ccc([C@@H]6c7ccc(O)cc7CC[C@@H]6c6ccccc6)cc5)C4)CC3)cc1)=N[C@@H](C)c1nnc(C)n1-2 [III-7] | 50 to 500 | 500 to 2500 | 
13 | < 50 | Cc1sc2c(c1C)C(c1ccc(N3CC4(CC(CN5CCN(c6ccc([C@@H]7c8ccc(O)cc8CC[C@@H]7c7ccc(F)cc7)cc6)CC5)C4)C3)cc1)=N[C@@H](C)c1nnc(C)n1-2 [III-263] | < 50 | 500 to 2500 | 
14 | < 50 | Cc1sc2c(c1C)C(c1ccc(N3CC(C(=O)N4CCC(CC5CN(c6ccc([C@@H]7c8ccc(O)cc8CC[C@@H]7c7ccccc7)cc6)C5)CC4)C3)cc1)=N[C@@H](C)c1nnc(C)n1-2 [III-134] | < 50 | 50 to 500 | 
15 | 50 to 500 | Cc1sc2c(c1C)C(c1ccc(N3CC4(CCC(F)(CN5CCC(c6ccc([C@@H]7c8ccc(O)cc8CC[C@@H]7c7ccccc7)cc6)CC5)CC4)C3)cc1)=N[C@@H](C)c1nnc(C)n1-2 [III-222] | < 50 | > 2500 | 
16 | < 50 | CC1=C(C)C2C(c3ccc(N4CC(O)(CC5CCN(c6ccc([C@@H]7c8ccc(O)cc8CC[C@@H]7c7ccccc7)cc6)CC5)C4)cc3)=N[C@@H](Cc3ncco3)c3nnc(C)n3C2S1 (stereo partly drawn) [III-167] | < 50 | 50 to 500 | 
17 | < 50 | Cc1sc2c(c1C)C(c1ccc(N3CCC4(CCN(CCOc5ccc([C@@H]6c7ccc(O)cc7CC[C@@H]6c6ccccc6)cc5)CC4)CC3)cc1)=NC(Cc1ncco1)c1nnc(C)n1-2 (stereo partly drawn) [III-38] | < 50 | 50 to 500 | 
18 | 50 to 500 | Cc1sc2c(c1C)C(c1ccc(N3CCC(N4CC(Oc5ccc([C@H]6c7ccc(O)cc7CC[C@H]6c6ccccc6)cc5)C4)CC3)cc1)=N[C@@H](C)c1nnc(C)n1-2 [III-8] | 500 to 2500 | 500 to 2500 | 
19 | < 50 | CC1=C(C)C2C(c3ccc(N4CCC(C(=O)N5CC(c6ccc([C@@H]7c8ccc(O)cc8CC[C@@H]7c7ccccc7)cc6)C5)CC4)cc3)N[C@@H](Cc3ncco3)c3nnc(C)n3C2S1 (stereo partly drawn) [III-174] | < 50 | 50 to 500 | 
20 | 50 to 500 | Cc1sc2c(c1C)C(c1ccc(N3CCN(CC4CCN(c5ncc([C@@H]6c7ccc(O)cc7CC[C@@H]6c6ccccc6)cn5)CC4)CC3)cc1)=N[C@@H](Cc1ncco1)c1nnc(C)n1-2 [III-128] | < 50 | 50 to 500 | 
21 | 50 to 500 | Cc1sc2c(c1C)C(c1ccc(N3CCC(O)(CN4CCN(c5ccc([C@@H]6c7ccc(O)cc7CC[C@@H]6c6ccc(F)c(F)c6)c(F)c5)CC4)CC3)cc1)=N[C@@H](C)c1nnc(C)n1-2 [III-270] | < 50 | 500 to 2500 | 
22 | 50 to 500 | COC1(CN2CCC(c3ccc([C@@H]4c5ccc(O)cc5CC[C@@H]4c4ccccc4)cc3)CC2)CCN(c2ccc(C3=N[C@@H](C)c4nnc(C)n4-c4sc(C)c(C)c43)cc2)CC1 [III-130] | 50 to 500 | 500 to 2500 | 
